Where two headings read alike, the source gives them in different places.
Experiments:
[1] = cited from earlier work; for terminal half-life: 2008
[2] = set-up: method as in Kim et al., 2019; conditions: with verapamil (inhibitor of P-gp and CYP3A4); ref Kim et al., 2019; cited from earlier work
[3] = Stability in rat plasma under storage and processing conditions (QC samples, UPLC-MS/MS); conditions: n = 6
Protocol: The stability of plasma samples was validated by the QC samples at three concentration levels in six replicates under various storage and processing conditions: autosampler for 24 h after preprocessing, room temperature for 8 h, −80°C for 30 days, and three freeze-thaw cycles (−80°C to room temperature). The samples were verified to be stable if the deviation of the samples was not more than ±15% of the standard concentration.

[4] = Freeze-thaw stability for three times, high QC (nominal 150 almonertinib, 800 apixaban, 1,500 rivaroxaban ng/mL)
[5] = Freeze-thaw stability for three times, low QC (nominal 1 almonertinib, 2 apixaban, 10 rivaroxaban ng/mL)
[6] = Freeze-thaw stability for three times, medium QC (nominal 80 almonertinib, 400 apixaban, 800 rivaroxaban ng/mL)
[7] = Room temperature for 8 h, high QC (nominal 150 almonertinib, 800 apixaban, 1,500 rivaroxaban ng/mL)
[8] = Room temperature for 8 h, low QC (nominal 1 almonertinib, 2 apixaban, 10 rivaroxaban ng/mL)
[9] = Room temperature for 8 h, medium QC (nominal 80 almonertinib, 400 apixaban, 800 rivaroxaban ng/mL)
[10] = −80°C for 30 days, high QC (nominal 150 almonertinib, 800 apixaban, 1,500 rivaroxaban ng/mL)
[11] = −80°C for 30 days, low QC (nominal 1 almonertinib, 2 apixaban, 10 rivaroxaban ng/mL)
[12] = −80°C for 30 days, medium QC (nominal 80 almonertinib, 400 apixaban, 800 rivaroxaban ng/mL)

- Stability: Accuracy (RE%) [3, 4]: −5.56%
- Stability: measured concentration, Mean ± SD [3, 4]: 1,416.67 ± 48.85 ng/mL
- Stability: Accuracy (RE%) [3, 5]: 1.13%
- Stability: measured concentration, Mean ± SD [3, 5]: 10.11 ± 0.61 ng/mL
- Stability: Accuracy (RE%) [3, 6]: −3.21%
- Stability: measured concentration, Mean ± SD [3, 6]: 774.33 ± 23.28 ng/mL
- Stability: Accuracy (RE%) [3, 7]: −1.11%
- Stability: measured concentration, Mean ± SD [3, 7]: 1,483.33 ± 72.30 ng/mL
- Stability: Accuracy (RE%) [3, 8]: 7.75%
- Stability: measured concentration, Mean ± SD [3, 8]: 10.78 ± 0.59 ng/mL
- Stability: Accuracy (RE%) [3, 9]: 4.19%
- Stability: measured concentration, Mean ± SD [3, 9]: 833.50 ± 49.92 ng/mL
- Stability: Accuracy (RE%) [3, 10]: −4.33%
- Stability: measured concentration, Mean ± SD [3, 10]: 1,435.00 ± 96.07 ng/mL
- Stability: Accuracy (RE%) [3, 11]: 6.83%
- Stability: measured concentration, Mean ± SD [3, 11]: 10.68 ± 0.22 ng/mL
- Stability: Accuracy (RE%) [3, 12]: −4.38%
- Stability: measured concentration, Mean ± SD [3, 12]: 765.00 ± 58.14 ng/mL
Compound: O=C(NC[C@H]1CN(c2ccc(N3CCOCC3=O)cc2)C(=O)O1)c1ccc(Cl)s1 [rivaroxaban, Rivaroxaban]
- time of the maximal blood concentration after oral intake ([1]; (±1 h), each of two drugs, ref Steffel et al., 2021): 2 to 3 h
- time to reach maximum plasma concentrations ([1]; after oral administration, ref Kubitza et al., 2005a, Kubitza et al., 2005b, Raghavan et al., 2009): 2 to 4 h
- terminal half-life ([1]; elderly subjects, ref Kubitza et al., 2005a, Kubitza et al.): 11 to 13 h
- terminal half-life ([1]; healthy young subjects, ref Kubitza et al., 2005a, Kubitza et al.): 5 to 9 h
- increase of systemic exposure of rivaroxaban [2]: 2.8 fold

Reference: article PMC10582335 (Frontiers in Pharmacology, 2023)
